Data published in article PMC12774438, “CBL ubiquitin ligase targets translation as a degrader E3” (Chemical Science, 2025).
Where a SMILES comes first, the peptide text is derived from it.

How the values were obtained:
HeLa cells = test: CellTiter-Glo2.0 cell viability assay; format: cell-based; conditions: for viable cells (lowest): concentrations of 16.10 µM or higher
Procedure: Supplementary Figure 5. Characterisation of cytotoxicity effects of CP-eIFTerminators and […]
A. Measurement of cell viability (%) in HeLa cells following 3-hr treatments with cell-penetrating peptides. A Cell Titer-Glo2.0 cell viability assay was performed to assess viability of HeLa cells following a 3-hr treatment with a dilution series of each CP-eIFTerminator or parental warhead (CP-CBLock or CP-eIF4G1-D5S). The concentration range of each peptide in the 13-point serial dilution was 0.16-24.4 μM.
Data on CP-eIFTerminator2 are not shown as it was insoluble (n = 3, mean ± Standard error of the mean (SEM)).
B. Measurement of cell viability (%) in HeLa cells following 8 hr treatments with cell- […]
viability of HeLa cells following an 8-hr treatment with a dilution series of each CP-eIFTerminator, CP-CBLock, or CP-eIF4G1-D5S. The concentration range of each peptide in the 13-point serial dilution was 0.16-24.4 μM. CP-eIFTerminator2 was not
(1 picture or pasted object on this page, not shown here)
MgCl2. After the liquid was removed, 30 μL 2x LDS mix (prepared as described above) was used to elute the IP samples. The samples were boiled at 92°C for 10 min and 28 μL were loaded on a 4-12% Bis-Tris SDS-PAGE gel, along with the whole cell lysates that were prepared in 75 μL RIPA buffer. The gel was subsequently transferred and western blotted.
Antibodies included anti-actin, anti-HA, anti-K48 antibodies as primaries, as well as IRDye800CW goat anti-mouse IgG secondary antibody and IRDye680LT goat anti-rabbit […]
CellTiter-Glo2.0 Cell Viability Assay
Cells were seeded onto a Greiner 384 small volume plate using a Multidrop TM Combi Reagent Dispenser (Thermo Scientific). The seeding density was 2000 cells/well in a volume of 15 μL per well. After incubating the 384-well plate overnight at 37°C, 5% CO 2, the medium on the plate was removed using a Bluewasher (Blue Cat Bio). […] The plate was read using a PHERAstar FSX (BMG Labtech). Raw data were exported from the Pherastar as a Microsoft Excel file and analysed in Excel, and the processed data were plotted in GraphPad Prism v9.5.1. […]

eIF4E = molecular target: T1, eIF4E (Homo sapiens, UniProt P06730); test: Western blot of endogenous eIF4E (and eIF4A, eIF4G, FITC) in HeLa cells; format: cell-based; conditions: 3 h, result in words; for eIF4E degradation, PROTAC versus individual warheads: 10 µM
T1 construct: assessed the effects on the endogenous levels of eIF4E; endogenous in cells; host or cells: HeLa
Procedure: Western blot procedures for cell-based assays
Three washes with 1 mL PBS were performed before harvesting cells with a cell lifter. The cells were frozen in liquid nitrogen and stored at -70°C. The lysis buffer comprised 50 mM Tris-HCl (pH 7.5), 150 mM NaCl, 1% Triton-X, 1% SDS, 1 μL benzonase and one tablet of the Pierce TM Protease Inhibitor Tablets, EDTA-free (ThermoFisher Sceintific) in PBS except for HA-tag and Myc-tag IP. As for HA-tag and Myc-tag IP, the lysis buffer consisted of 50 mM Tris-HCl (pH 7.5), 150 mM NaCl, 1 mM EDTA, 1% IGEPAL CA-630, 10% glycerol, 20 μM PMSF, 1 mM DTT, and a single Protease Inhibitor Tablet in PBS.
The cells were lysed in 35 μL lysis buffer at 4°C by vortexing every 10 min over a period of 90 min. Protein concentration in the cell lysate was measured by Bradford assay.
Lysates were immunoprecipitated in addition to inputs when appropriate. SDS-PAGE and immunoblotting analysis were performed subsequently. […]
CellTiter-Glo2.0 Cell Viability Assay […]
A 13-point serial dilution series of 0.163 μM –
24.4 μM of each peptide dissolved in DMSO was dispensed with the highest concentration of DMSO at less than 0.5%. Three replicates were run per condition. The assay plate was incubated for 3 hr or 8 hr at 37°C, 5% CO 2. Following this, the liquid on the assay plate was removed using the Bluewasher. […]
Comparison of CP-eIFTerminator peptides and warheads in HeLa cells
HeLa cells were seeded in 6 cm dishes at a cell density of 1.5 x10^6 per dish. After overnight incubation at 37°C, 5% CO 2, cells were treated with […] along with 10 μM of respective cell-penetrating peptides. Peptides were reconstituted in water immediately before addition to the cell culture. An equal volume of water was added as a negative control.
Cells were harvested 3 hr after peptide incubation at 37°C, 5% CO 2 for western blot analysis.
Anti-actin, anti-eIF4EA, anti-eIF4E, anti-eIF4G, and anti-FITC antibodies, as well as […]
secondary IgG in Table 3 were used for Western blot.
Time course of CP-eIFTerminator4 in HeLa cells
0.5 x 10^6 HeLa cells were seeded in 35 mm dishes. A time course experiment was initiated after overnight incubation at 37°C, 5% CO 2. For each time point (0.5, 3, 6, 12, 24 hr), cells were treated with fresh medium containing 100 ng/mL EGF along with 20 μM CP-eIFTerminator4 or water. All dishes were harvested at the same time, after varying incubations with the peptide.
Titration of CP-eIFTerminator4 in HeLa and U-2 OS cells […]
Immediately after this, 2.5 μM, 10 μM, or 50 μM CP-eIFTerminator4 was added to U-2 OS cells. 5 μM, 10 μM, or 20 μM CP-eIFTerminator4 was added in the case of HeLa cells. […]
15022) or 50 μM chloroquine (Cell Signaling Technology, Cat. No.: 14774S) and incubated for 4 hr at 37 °C, 5% CO 2. […] The cell lysates were analysed by western blot. […]

T1 sequence (P06730 whole entry): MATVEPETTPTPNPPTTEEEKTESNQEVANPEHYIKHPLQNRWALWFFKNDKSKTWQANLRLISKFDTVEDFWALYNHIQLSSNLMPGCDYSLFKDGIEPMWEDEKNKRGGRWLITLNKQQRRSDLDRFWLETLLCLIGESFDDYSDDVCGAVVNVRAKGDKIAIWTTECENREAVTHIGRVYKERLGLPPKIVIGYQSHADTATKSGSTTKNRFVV

Compound	viable cells (lowest) (HeLa cells; 3 h post-peptide treatment)	viable cells (lowest) (HeLa cells; 8 h post-peptide treatment)	concentration at which cytotoxicity was exhibited (HeLa cells; CellTiter-Glo2.0, 0.16–24.4 µM, 3 h and 8 h, 100 ng/mL EGF, n = 3)	eIF4E degradation, PROTAC versus individual warheads (eIF4E)	effect on eIF4A1, eIF4E and eIF4G1 levels (eIF4E)
CC[C@H](C)[C@H](NC(=O)[C@H](CCCCN)NC(=O)[C@@H](NC(=O)[C@H](CCC(N)=O)NC(=O)[C@@H](N)CCCNC(=N)N)[C@@H](C)CC)C(=O)N[C@@H](Cc1c[nH]c2ccccc12)C(=O)N[C@@H](Cc1ccccc1)C(=O)N[C@@H](CCC(N)=O)C(=O)N[C@@H](CC(N)=O)C(=O)N[C@@H](CCCNC(=N)N)C(=O)N[C@@H](CCCNC(=N)N)C(=O)N[C@@H](CCSC)C(=O)N[C@@H](CCCCN)C(=O)N[C@@H](Cc1c[nH]c2ccccc12)C(=O)N[C@@H](CCCCN)C(=O)N[C@@H](CCCCN)C(=O)NCC(=O)NCC(=O)N[C@@H](CO)C(=O)N[C@@H](CCCCN)C(=O)N[C@@H](CCCCN)C(=O)N[C@@H](CCCNC(=N)N)C(=O)N[C@@H](Cc1ccc(O)cc1)C(=O)N[C@@H](CO)C(=O)N[C@@H](CCCNC(=N)N)C(=O)N[C@@H](CCC(=O)O)C(=O)N[C@@H](Cc1ccccc1)C(=O)N[C@@H](CC(C)C)C(=O)N[C@@H](CC(C)C)C(=O)NCC(=O)N[C@@H](Cc1ccccc1)C(N)=O [CP-eIF4G1-D5S] (H-RQIKIWFQNRRMKWKKGGSKKRYSREFLLGF-NH2; N-terminus assumed)	≥ 35%	≥ 25%	≥ 16.10 µM	do not trigger eIF4E degradation	minimal effects
N'-RQIKIWFQNRRMKWKKGGSMTVEEMDSWIKSWDQR-C' [CP-CBLock]	–	–	–	do not trigger eIF4E degradation	minimal effects
